pIC50, pKi: −log10 of the molar value.
How the values were obtained:
Histone deacetylase 1 [1] = molecular target: T1, Histone deacetylase 1 (Mus musculus, UniProt O09106); assay: In vitro for anti-HDAC1 (Histone deacetylase 1) activity in mouse A20 cells; type: cell-based
Histone deacetylase 1 [2] = molecular target: T1, Histone deacetylase 1; assay: Binding affinity towards HDAC1 (Histone deacetylase 1) in mouse A20 cells, expressed as binding constant (pKi); type: cell-based

T1 sequence (O09106 whole entry): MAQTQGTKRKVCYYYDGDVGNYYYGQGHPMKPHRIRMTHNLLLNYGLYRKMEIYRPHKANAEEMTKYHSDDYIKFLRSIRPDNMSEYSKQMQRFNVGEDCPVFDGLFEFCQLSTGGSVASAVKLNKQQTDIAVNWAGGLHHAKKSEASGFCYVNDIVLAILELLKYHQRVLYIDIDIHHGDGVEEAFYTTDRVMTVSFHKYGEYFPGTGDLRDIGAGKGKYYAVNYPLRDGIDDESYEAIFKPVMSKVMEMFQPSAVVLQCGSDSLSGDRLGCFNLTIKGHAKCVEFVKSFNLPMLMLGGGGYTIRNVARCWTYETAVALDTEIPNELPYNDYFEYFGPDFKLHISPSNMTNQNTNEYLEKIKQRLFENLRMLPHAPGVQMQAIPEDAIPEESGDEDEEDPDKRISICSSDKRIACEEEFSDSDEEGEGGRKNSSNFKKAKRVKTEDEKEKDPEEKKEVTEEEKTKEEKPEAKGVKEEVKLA

| pIC50 (Histone deacetylase 1 [1]) | pKi (Histone deacetylase 1 [2]) | SMILES |
| --- | --- | --- |
| 5.31 | 5.53 | Cn1cc(C(=O)c2ccccc2)cc1/C=C/C(=O)NO |
| 5.38 | 5.60 | CN(C)c1ccc(C(=O)c2cc(/C=C/C(=O)NO)n(C)c2)cc1 |
| 5.35 | 5.57 | Cc1ccc(C(=O)c2cc(/C=C/C(=O)NO)n(C)c2)cc1 |

From ChEMBL document CHEMBL1135928, “Binding mode analysis of 3-(4-benzoyl-1-methyl-1H-2-pyrrolyl)-N-hydroxy-2-propenamide: a new synthetic histone deacetylase inhibitor inducing histone hyperacetylation, growth inhibition, and terminal cell differentiation” (J Med Chem, 2002)
